From paper PMC12377202, “Design, synthesis, and cytotoxic evaluation of quinazoline-based derivatives as VEGER-2 inhibitors: comparative study against EGFR kinase activity, induction of apoptosis, and molecular docking study” (RSC Advances, 2025)

Columns and labels:
K-562 = experiment: MTT anti-proliferative assay, K-562; type: cell-based, human; conditions: Homo sapiens, K562
VEGFR-2 = VEGFR-2 (Homo sapiens, UniProt P35968); experiment: In vitro VEGFR-2 inhibitory assay (ELISA kit); conditions: VEGFR-2 kinase
IL-6R = IL-6R level in HepG-2 cells; type: cell-based, human
Procedure: (§1) All synthesized compounds were tested at their cytotoxic concentrations in HepG-2 cells for analysis of gene expression levels of apoptotic markers caspase-3, caspase-9, TNF-α, and IL-6 proteins, and only two active compounds were tested for BAX and Bcl-2 proteins.
(§2) through Flow cytometric analysis.
(§3) Pellets were collected again and incubated with
(§4) Total RNA from vehicle-treated
(§5) (Thermo Scientific, USA).
(§6) All experiments were performed in […]

caspase-9 = experiment: Caspase-9 expression level in HepG-2 cells; type: cell-based, human; conditions: for Caspase-9 ± SE: HepG-2, at IC50 concentrations, control 11.01
Procedure: as §1, §2, §3, §4, §5, §6

HepG-2 cells = experiment: Cell cycle analysis (PI staining, flow cytometry); type: cell-based, human
Procedure: In order to cause cytotoxicity, anticancer medicines must stop cell division at specific checkpoints, which are discrete stages of the cell cycle.
Propidium iodide (PI) staining and flow cytometry analysis[74,75] were used to analyze the cell cycle for derivatives 8a and 9a, as illustrated in the SI.
as §2, §3, §4, §5, §6

[1] = MTT cytotoxicity against normal cells; type: cell-based, human; conditions: human
HEK-293 = experiment: MTT cytotoxicity against normal cells; type: cell-based, human

VEGFR-2, sequence (P35968 20-1356): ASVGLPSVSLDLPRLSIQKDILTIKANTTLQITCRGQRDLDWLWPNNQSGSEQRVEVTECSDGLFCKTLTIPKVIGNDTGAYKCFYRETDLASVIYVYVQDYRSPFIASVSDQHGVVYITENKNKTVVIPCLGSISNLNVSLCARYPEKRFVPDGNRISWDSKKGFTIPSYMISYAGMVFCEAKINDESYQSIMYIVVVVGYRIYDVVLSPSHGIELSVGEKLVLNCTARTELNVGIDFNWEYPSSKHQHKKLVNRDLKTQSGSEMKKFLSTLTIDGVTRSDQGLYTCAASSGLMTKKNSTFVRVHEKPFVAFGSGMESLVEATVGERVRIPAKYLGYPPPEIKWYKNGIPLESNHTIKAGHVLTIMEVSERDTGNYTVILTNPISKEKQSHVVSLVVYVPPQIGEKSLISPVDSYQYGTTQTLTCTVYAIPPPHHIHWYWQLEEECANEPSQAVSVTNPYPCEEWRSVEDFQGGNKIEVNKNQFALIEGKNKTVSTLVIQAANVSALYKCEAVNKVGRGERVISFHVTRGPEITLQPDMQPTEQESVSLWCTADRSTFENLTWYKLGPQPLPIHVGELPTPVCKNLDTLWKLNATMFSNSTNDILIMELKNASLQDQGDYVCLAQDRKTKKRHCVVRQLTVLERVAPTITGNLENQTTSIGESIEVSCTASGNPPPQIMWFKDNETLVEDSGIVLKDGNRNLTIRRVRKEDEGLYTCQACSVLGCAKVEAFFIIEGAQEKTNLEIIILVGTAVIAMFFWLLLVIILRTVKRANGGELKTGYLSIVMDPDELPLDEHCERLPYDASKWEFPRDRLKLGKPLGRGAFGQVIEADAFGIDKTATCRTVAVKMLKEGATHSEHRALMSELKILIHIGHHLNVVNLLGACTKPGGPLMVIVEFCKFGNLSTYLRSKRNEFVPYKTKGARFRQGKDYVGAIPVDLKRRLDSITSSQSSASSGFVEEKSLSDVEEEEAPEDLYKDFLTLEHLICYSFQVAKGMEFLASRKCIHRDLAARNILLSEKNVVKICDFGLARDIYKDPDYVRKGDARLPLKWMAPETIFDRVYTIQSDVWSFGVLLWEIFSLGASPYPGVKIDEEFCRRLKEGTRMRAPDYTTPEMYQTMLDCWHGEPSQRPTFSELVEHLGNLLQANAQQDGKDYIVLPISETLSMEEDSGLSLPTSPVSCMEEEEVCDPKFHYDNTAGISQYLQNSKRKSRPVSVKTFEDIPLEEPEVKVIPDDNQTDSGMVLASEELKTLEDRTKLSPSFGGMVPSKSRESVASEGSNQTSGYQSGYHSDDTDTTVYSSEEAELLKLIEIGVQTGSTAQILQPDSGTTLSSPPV

## O=C(Cn1cnc2cc([N+](=O)[O-])ccc2c1=O)Nc1ccccc1Cl [9b, N-(2-Chlorophenyl)-2-(7-nitro-4-oxoquinazolin-3(4H)-yl)acetamide]
K-562; K-562, 0.781 umol
  viability at 0.781 µmol: 25.5%
K-562; K-562, 0.781 umol, read-out: Toxicity %
  cytotoxicity at 0.781 µmol: 74.5%
K-562; K-562, 1.563 umol
  viability at 1.563 µmol: 13.6%
K-562; K-562, 1.563 umol, read-out: Toxicity %
  cytotoxicity at 1.563 µmol: 86.4%
K-562; K-562, 3.125 umol
  viability at 3.125 µmol: 8.05%
K-562; K-562, 3.125 umol, read-out: Toxicity %
  cytotoxicity at 3.125 µmol: 92%
K-562; K-562, 6.25 umol
  viability at 6.25 µmol: 8.5%
K-562; K-562, 6.25 umol, read-out: Toxicity %
  cytotoxicity at 6.25 µmol: 91.5%
K-562; K-562, 12.5 umol
  viability at 12.5 µmol: 6.86%
K-562; K-562, 12.5 umol, read-out: Toxicity %
  cytotoxicity at 12.5 µmol: 93.1%
K-562; K-562, 25 umol
  viability at 25 µmol: 6.2%
K-562; K-562, 25 umol, read-out: Toxicity %
  cytotoxicity at 25 µmol: 93.8%
K-562; MTT, K-562, read-out: Cytotoxicity against cancer cells IC50 K-562
  IC50: 190 ± 3.7 nM
VEGFR-2; HepG2
  Activity %: 33.564%
  Inhibition %: 66.436%
VEGFR-2; K-562
  Activity %: 56.948%
  Inhibition %: 43.052%
VEGFR-2; MCF7
  Activity %: 80.680%
  Inhibition %: 19.320%
IL-6R; HepG-2, at IC50 concentrations, control 44.10
  IL-6R ± SE: 28.78 ± 1.23 ng/L
IL-6R; HepG-2, control 44.10%
  IL-6R protein level: 28.78 ng/L
IL-6R; raw data, HepG2, control 44.10
  IL-6 ±SE: 19.54 ng/L
caspase-9
  Caspase-9 ± SE: 7.31 ± 0.93 ng/L
caspase-9; listed as N5
  Caspase-9 ± SE: 7.31 ng/L
caspase-9; HepG-2, vs control cells
  caspase-9 expression level, fold increase: no apoptotic effect
HepG-2 cells; HepG-2, cytotoxic concentration, 24 h, control 68.12
  % Sub-G1: 94.68%
HepG-2 cells; HepG-2, control 2.23
  % S: 0.19%
HepG-2 cells; HepG-2, control 6.52
  % G2/M: 0.24%
HepG-2 cells; HepG-2, control 23.14
  % G1: 4.89%
[1]; HEK-293 cells (normal human embryonic kidney cells), MTT, HEK-293, read-out: Cytotoxicity against normal cell IC50 HEK-293
  IC50 at 3 days: 1747 ± 2.6 nM
[1]; HEK-293 cells (normal human embryonic kidney), HEK-293, 0.195 umol/ml
  viability at 3 days, 0.195 umol/ml: 98.1%
[1]; HEK-293 cells (normal human embryonic kidney), HEK-293, 0.391 umol/ml
  viability at 3 days, 0.391 umol/ml: 76.9%
[1]; HEK-293 cells (normal human embryonic kidney), HEK-293, 0.781 umol/ml
  viability at 3 days, 0.781 umol/ml: 62.1%
[1]; HEK-293 cells (normal human embryonic kidney), HEK-293, 1.563 umol/ml
  viability at 3 days, 1.563 umol/ml: 52.7%
[1]; HEK-293 cells (normal human embryonic kidney), HEK-293, 3.125 umol/ml
  viability at 3 days, 3.125 umol/ml: 29.7%
[1]; HEK-293 cells (normal human embryonic kidney), HEK-293, 6.25 umol/ml
  viability at 3 days, 6.25 umol/ml: 17.2%
[1]; HEK-293 cells (normal human embryonic kidney), HEK-293, 12.5 umol/ml
  viability at 3 days, 12.5 umol/ml: 8.78%
[1]; HEK-293 cells (normal human embryonic kidney), HEK-293, 25 umol/ml
  viability at 3 days, 25 umol/ml: 6.3%
HEK-293; HEK-293, 0.195 umol/ml
  Toxicity %: 1.903%
HEK-293; HEK-293, 0.391 umol/ml
  Toxicity %: 23.13%
HEK-293; HEK-293, 0.781 umol/ml
  Toxicity %: 37.87%
HEK-293; HEK-293, 1.563 umol/ml
  Toxicity %: 47.29%
HEK-293; HEK-293, 3.125 umol/ml
  Toxicity %: 70.33%
HEK-293; HEK-293, 6.25 umol/ml
  Toxicity %: 82.82%
HEK-293; HEK-293, 12.5 umol/ml
  Toxicity %: 91.22%
HEK-293; HEK-293, 25 umol/ml
  Toxicity %: 93.7%
HEK-293; HEK-293 vs K-562
  selectivity, cancer cells vs normal human kidney cells (fold): 9 fold
HEK-293; HEK-293 vs MCF-7
  selectivity, cancer cells vs normal human kidney cells (fold): 8.4 fold
HEK-293; Homo sapiens, HEK293, raw data, HEK-293
  IC50: 1750 nM
